Measurements: patent US8481540B2, “Inhibitors of bruton's tyrosine kinase” (Hoffmann-La Roche Inc., priority 2010, dated 2013)

The molecules below were run on B cells in human blood (assay: Inhibition of B cell activation in whole blood measured by CD69 expression). Settings: CD69-positive, CD20-positive cells after anti-IgM stimulation, human whole blood, 20 hours, read-out: Human Whole Blood.
Format: cell-based
Procedure: Inhibition of B Cell Activation in Whole Blood Measured by CD69 Expression
A procedure to test the ability of Btk inhibitors to suppress B cell receptor-mediated activation of B cells in human blood is as follows:
Human whole blood (HWB) is obtained from healthy volunteers, with the following restrictions: 24 hr drug-free, non-smokers. Blood is collected by venipuncture into Vacutainer tubes anticoagulated with sodium heparin. Test compounds are diluted to […] the desired starting drug concentration in PBS (20×), followed by three-fold serial dilutions in 10% DMSO in PBS to produce a nine point dose-response curve. 5.5 μl of each compound dilution is added in duplicate to a 2 ml96-well V bottom plate (Analytical Sales and Services, #59623-23); 5.5 μl of 10% DMSO in PBS is added to control and no-stimulus wells. HWB (100 μl) is added to each well, and after mixing the plates are incubated at 37 C, 5% CO2, 100% humidity for 30 minutes. Goat F(ab′)2 anti-human IgM (Southern Biotech, #2022-14) (10 μl of a […] solution, 50 μg/ml final concentration) is added to each well (except the no-stimulus wells) with mixing and the plates are incubated for an additional 20 hours.
At the end of the 20 hour incubation, samples are incubated with florescent-probe-labeled anti-bodies (15 μl PE Mouse anti-Human CD20, BD Pharmingen, #555623, and/or 20 ul APC Mouse anti-Human CD69, BD Pharmingen #555533) for 30 minutes, at 37 C, 5% CO2, 100% humidity. Included are induced control, unstained and single stains for compensation adjustments and initial voltage settings. Samples are then lysed with 1 ml of 1× Pharmingen Lyse Buffer (BD Pharmingen #555899), and plates are centrifuged at 1800 rpm for 5 minutes. Supernatants are removed via suction and the remaining pellets are lysed again with another 1 ml of 1× Pharmingen Lyse Buffer, and plates are spun down as before. Supernatants are aspirated and remaining pellets are washed in FACs buffer (PBS+1% FBS). After a final spin, the supernantants are removed and pellets are resuspended in 180 μl of FACs buffer. Samples are transferred to a 96 well plate suitable to be run on the HTS 96 well system on the BD LSR II flow cytometer.
Using appropriate excitation and emission wavelengths for the fluorophores used, data are acquired and percent positive cell values are obtained using Cell Quest Software. Results are initially analyzed by FACS analysis software (Flow Jo). […] The IC50 values are calculated using XLfit software version 3, equation 201.
Representative compound data for this assay are listed below in Table II.

| Structure (SMILES) | IC50 [nM] |
| --- | --- |
| Cn1nc(-c2cccc(-n3ncc4cc(C(C)(C)C)cc(F)c4c3=O)c2CO)cc(Nc2ccc(C3CCN(C4COC4)CC3)cn2)c1=O [I-80, 6-tert-Butyl-8-fluoro-2-{2-hydroxymethyl-3-[1-methyl-5-(1′-oxetan-3-yl-1′,2′,3′,4′,5′,6′-hexahydro-[3,4]bipyridinyl-6-ylamino)-6-oxo-1,6-dihydro-pyridazin-3-yl]-phenyl}-2H-phthalazin-1-one] | 41 |
| Cn1nc(-c2cccc(-n3ncc4cc(C(C)(C)C)cc(F)c4c3=O)c2CO)cc(Nc2ccc(N3CCC(O)CC3)cn2)c1=O [I-65, 6-tert-butyl-8-fluoro-2-(2-(hydroxymethyl)-3-(5-(5-(4-hydroxypiperidin-1-yl)pyridin-2-ylamino)-1-methyl-6-oxo-1,6-dihydropyridazin-3-yl)phenyl)phthalazin-1(2H)-one] | 62 |
| CCOC(=O)N1CCN(c2ccc(Nc3cc(-c4cccc(-n5ncc6cc(C(C)(C)C)cc(F)c6c5=O)c4CO)nn(C)c3=O)nc2)CC1 [I-86, 4-(6-{6-[3-(6-tert-Butyl-8-fluoro-1-oxo-1H-phthalazin-2-yl)-2-hydroxymethyl-phenyl]-2-methyl-3-oxo-2,3-dihydro-pyridazin-4-ylamino}-pyridin-3-yl)-piperazine-1-carboxylic acid ethyl ester] | 408 |
| CN(CCO)C(=O)c1ccc(Nc2cc(-c3cccc(-n4ncc5cc(C(C)(C)C)cc(F)c5c4=O)c3CO)nn(C)c2=O)nc1 [I-52, 6-(6-(3-(6-tert-butyl-8-fluoro-1-oxophthalazin-2(1H)-yl)-2-(hydroxymethyl)phenyl)-2-methyl-3-oxo-2,3-dihydropyridazin-4-ylamino)-N-(2-hydroxyethyl)-N-methylnicotinamide] | 27 |
| Cn1nc(-c2cccc(-n3ccc4cc(C(C)(C)C#N)cc(F)c4c3=O)c2CO)cc(Nc2ccc(OC(C)(C)CN3CCC3)cn2)c1=O [I-73, 2-[2-(3-{5-[5-(2-Azetidin-1-yl-1,1-dimethyl-ethoxy)-pyridin-2-ylamino]-1-methyl-6-oxo-1,6-dihydro-pyridazin-3-yl}-2-hydroxymethyl-phenyl)-8-fluoro-1-oxo-1,2-dihydro-isoquinolin-6-yl]-2-methyl-propionitrile] | 30 |
| CN1CC[C@@H](c2ccc(Nc3cc(-c4cccc(-n5ccc6cc(C(C)(C)C#N)cc(F)c6c5=O)c4CO)nn(C)c3=O)nc2)C1 [I-77, 2-[8-Fluoro-2-(2-hydroxymethyl-3-{1-methyl-5-[5-((S)-1-methyl-pyrrolidin-3-yl)-pyridin-2-ylamino]-6-oxo-1,6-dihydro-pyridazin-3-yl}-phenyl)-1-oxo-1,2-dihydro-isoquinolin-6-yl]-2-methyl-propionitrile] | 123 |
| Cn1nc(-c2cccc(-n3ncc4cc(C(C)(C)C)cc(F)c4c3=O)c2CO)cc(Nc2ccc(C(=O)N3CC4(COC4)C3)cn2)c1=O [I-49, 2-(3-(5-(5-(2-oxa-6-azaspiro[3.3]heptane-6-carbonyl)pyridin-2-ylamino)-1-methyl-6-oxo-1,6-dihydropyridazin-3-yl)-2-(hydroxymethyl)phenyl)-6-tert-butyl-8-fluorophthalazin-1(2H)-one] | 85 |
| CN1CC2(C1)CN(C(=O)c1ccc(Nc3cc(-c4cccc(-n5ncc6cc(C(C)(C)C)cc(F)c6c5=O)c4CO)nn(C)c3=O)nc1)C2 [I-50, 6-tert-butyl-8-fluoro-2-(2-(hydroxymethyl)-3-(1-methyl-5-(5-(6-methyl-2,6-diazaspiro[3.3]heptane-2-carbonyl)pyridin-2-ylamino)-6-oxo-1,6-dihydropyridazin-3-yl)phenyl)phthalazin-1(2H)-one] | 86 |
| CCN1CCC(c2ccc(Nc3cc(-c4cccc(-n5ncc6cc(C(C)(C)C)cc(F)c6c5=O)c4CO)nn(C)c3=O)nc2)CC1 [I-30, 6-tert-Butyl-2-{3-[5-(1′-ethyl-1′,2′,3′,4′,5′,6′-hexahydro-[3,4]bipyridinyl-6-ylamino)-1-methyl-6-oxo-1,6-dihydro-pyridazin-3-yl]-2-hydroxymethyl-phenyl}-8-fluoro-2H-phthalazin-1-one] | 4 |
| CN(C)CCNC(=O)c1ccc(Nc2cc(-c3cccc(-n4ncc5cc(C(C)(C)C)cc(F)c5c4=O)c3CO)nn(C)c2=O)nc1 [I-51, 6-(6-(3-(6-tert-butyl-8-fluoro-1-oxophthalazin-2(1H)-yl)-2-(hydroxymethyl)phenyl)-2-methyl-3-oxo-2,3-dihydropyridazin-4-ylamino)-N-(2-(dimethylamino)ethyl)nicotinamide] | 19 |
| Cn1nc(-c2cccc(-n3ncc4cc(C(C)(C)C)cc(F)c4c3=O)c2CO)cc(Nc2ccc(OCC(C)(C)O)cn2)c1=O [I-14, 6-tert-butyl-8-fluoro-2-(2-hydroxymethyl-3-{5-[5-(2-hydroxy-2-methyl-propoxy)-pyridin-2-ylamino]-1-methyl-6-oxo-1,6-dihydro-pyridazin-3-yl}-phenyl)-2H-phthalazin-1-one] | 65 |
| Cn1nc(-c2cccc(-n3ncc4cc(C(C)(C)C)cc(F)c4c3=O)c2CO)cc(Nc2ccc(N3CCC(C)(O)CC3)cn2)c1=O [I-64, 6-tert-butyl-8-fluoro-2-(3-(5-(5-(4-hydroxy-4-methylpiperidin-1-yl)pyridin-2-ylamino)-1-methyl-6-oxo-1,6-dihydropyridazin-3-yl)-2-(hydroxymethyl)-phenyl)phthalazin-1(2H)-one] | 66 |
| CN(C)C(=O)c1ccc(Nc2cc(-c3cccc(-n4ccc5cc(C(C)(C)C#N)cc(F)c5c4=O)c3CO)nn(C)c2=O)nc1 [I-75, 6-(6-{3-[6-(Cyano-dimethyl-methyl)-8-fluoro-1-oxo-1H-isoquinolin-2-yl]-2-hydroxymethyl-phenyl}-2-methyl-3-oxo-2,3-dihydro-pyridazin-4-ylamino)-N,N-dimethyl-nicotinamide] | 180 |
| CN1CCC(c2ccc(Nc3cc(-c4cccc(-n5ccc6cc(C(C)(C)C#N)cc(F)c6c5=O)c4CO)nn(C)c3=O)nc2)C1 (stereo in doubt) [I-89, 2-[8-Fluoro-2-(2-hydroxymethyl-3-{1-methyl-5-[5-((S)-1-methyl-pyrrolidin-3-yl)-pyridin-2-ylamino]-6-oxo-1,6-dihydro-pyridazin-3-yl}-phenyl)-1-oxo-1,2-dihydro-isoquinolin-6-yl]-2-methyl-propionitrile] | 485 |
| Cn1nc(-c2cccc(N3CCc4cc(C(C)(C)C#N)cc(F)c4C3=O)c2CO)cc(Nc2ccc(OC(C)(C)CN3CCC3)cn2)c1=O [I-78, 2-[2-(3-{5-[5-(2-azetidin-1-yl-1,1-dimethyl-ethoxy)-pyridin-2-ylamino]-1-methyl-6-oxo-1,6-dihydro-pyridazin-3-yl}-2-hydroxymethyl-phenyl)-8-fluoro-1-oxo-1,2,3,4-tetrahydro-isoquinolin-6-yl]-2-methyl-propionitrile] | 84 |
| Cn1nc(-c2cccc(-n3ncc4cc(C(C)(C)C)cc(F)c4c3=O)c2CO)cc(Nc2ccc(C(=O)N3CC(C#N)C3)cn2)c1=O [I-53, 1-(6-(6-(3-(6-tert-butyl-8-fluoro-1-oxophthalazin-2(1H)-yl)-2-(hydroxymethyl)phenyl)-2-methyl-3-oxo-2,3-dihydropyridazin-4-ylamino)nicotinoyl)azetidine-3-carbonitrile] | 39 |
